Assays:
Type in all cases: cell-based
human RORγ [1] = biological target: T1, human RORγ (Homo sapiens, UniProt P51449); assay: HG5LN GAL4-RORγ reporter cell line, inhibition of constitutive activity; conditions: tested alone, NE = No effect; for IC50: inhibition of constitutive activity
T1 construct: RORγ (S97-K518); expressed in transfected cells; host or cells: HG5LN (HeLa cells carrying the (GAL4RE)5-βGlob-Luc-SVNeo reporter)
T1 sequence (P51449 97-518): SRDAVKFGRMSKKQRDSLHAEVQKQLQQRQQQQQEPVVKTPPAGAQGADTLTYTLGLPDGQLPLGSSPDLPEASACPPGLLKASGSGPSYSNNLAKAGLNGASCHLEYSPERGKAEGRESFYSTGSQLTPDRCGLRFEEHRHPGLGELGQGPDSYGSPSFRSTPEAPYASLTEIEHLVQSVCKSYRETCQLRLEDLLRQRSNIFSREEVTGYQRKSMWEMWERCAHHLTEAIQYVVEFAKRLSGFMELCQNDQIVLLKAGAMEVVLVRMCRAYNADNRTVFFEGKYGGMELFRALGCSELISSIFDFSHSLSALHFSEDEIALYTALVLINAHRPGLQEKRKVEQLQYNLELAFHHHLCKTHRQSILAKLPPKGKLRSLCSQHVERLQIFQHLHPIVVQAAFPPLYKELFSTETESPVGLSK
Text: (§1) To construct GAL4-NR chimeras, individual LBDs of human FXR (R193-Q486), LXRα (A187-E447), LXRβ (G199-E461), CAR (M76-S348), and RORγ (S97-K518) were amplified by PCR with primers containing XhoI and SacI restriction sites (FXR), XhoI and BamHI (LXRs, CAR, RORγ) and inserted in pSG5-GAL4(DBD)-puromycin plasmid. To construct GAL4-CAR (+ APYLT) (M76-S353), the five amino acids APYLT were inserted by overlap extension PCR between amino acids P270 and D271 of CAR.
(§2) To characterize the specificity of chemicals for human FXR, LXRα, LXRβ, CAR and RORγ, we established in a similar manner HG5LN FXR, LXRα, LXRβ, CAR WT, CAR (APYLT) and RORγ reporter cell lines. […] These cells were stably transfected by pSG5-GAL4 (DBD)-NRs (LBD)-puromycin plasmid and selected in presence of 0.5 µg/ml puromycin. […] From each HG5LN NR cells, 5 to 10 clones were chosen for their ligand inducibility of luciferase expression. […] The most inducible clones were expanded and rechecked for inducibility and aliquots were frozen at different passages. One clone per receptor was maintained in culture and used for ligand screening. HG5LN cells were cultured in Dulbecco’s modified Eagle’s medium (DMEM): Nutrient Mixture F-12 (DMEM/F-12) containing phenol red and 1 g/l glucose and supplemented with 5% fetal bovine serum, 100 units/ml of penicillin, 100 µg/ml of streptomycin and 1 mg/ml geneticin, in 5% CO2 humidified atmosphere at 37°C. Stably transfected cell lines derived from HG5LN cells were cultured in the same culture medium supplemented with 0.5 µg/ml puromycin.
(§3) Individual reporter cell lines were seeded at a density of 40,000 cells per well in 96-well white opaque tissue culture plates (Greiner CellStar) in Dulbecco’s Modified Eagle Medium: Nutrient Mixture F-12 (DMEM/F-12) without phenol red and 1 g/l glucose and supplemented with 5% stripped fetal bovine serum, 100 units/ml of penicillin, 100 µg/ml of streptomycin (test medium). Chemicals to be tested were added 24h later, and cells were incubated at 37°C for 16h. Experiments were performed in quadruplicates. At the end of the incubation period, culture medium was replaced with test medium containing 0.3 mM luciferin solution. Luciferase activity was measured for 2s in intact living cells after 10 min stabilization using a Micro Beta Wallac luminometer (PerkinElmer). EC50 values were calculated using GraphPad Prism (GraphPad Software Inc).
(§4) Chemicals tested for agonism on FXR, LXRs, CAR (+ APYLT), PXR, and antagonism on CAR and RORγ were tested alone, without addition of any other ligand.
(§5) In the transactivation assay, each compound was tested at various concentrations in three independent experiments at least. For each experiment, tests were performed in quadruplicates for each concentration, and data are expressed by means values with standard deviations. Individual agonist dose–response curves, in the absence and presence of antagonist, were fitted using the sigmoid dose-response function of a graphics and statistics software program (GraphPad Prism, version 5.0). EC50 (effective concentration for half-maximal luciferase activity) and IC50 (half-maximal inhibitory concentration) values were calculated from equations used to fit the data in this graphic software. Transactivation data are presented as EC50 and IC50 values for each compound tested. To analyze significances, we compared individual compound treatments with controls using one-way analysis of variance (ANOVA) with the help of GraphPad Prism software.

human FXR = biological target: T2, human FXR (Homo sapiens, UniProt Q96RI1); assay: HG5LN GAL4-FXR reporter cell line, agonist mode (luciferase transactivation); conditions: NE = No effect; for EC50: HG5LN GAL4-FXR cells, tested alone
T2 construct: FXR (R193-Q486); expressed in transfected cells; host or cells: HG5LN (HeLa cells carrying the (GAL4RE)5-βGlob-Luc-SVNeo reporter)
T2 sequence (Q96RI1 193-486): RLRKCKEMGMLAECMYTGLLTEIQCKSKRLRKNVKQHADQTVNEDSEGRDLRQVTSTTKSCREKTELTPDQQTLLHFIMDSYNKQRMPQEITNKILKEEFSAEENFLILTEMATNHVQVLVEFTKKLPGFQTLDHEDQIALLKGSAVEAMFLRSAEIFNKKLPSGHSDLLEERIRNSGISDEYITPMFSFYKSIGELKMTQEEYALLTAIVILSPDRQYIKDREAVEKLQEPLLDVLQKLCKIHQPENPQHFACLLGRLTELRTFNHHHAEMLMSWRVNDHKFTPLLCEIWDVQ
Text: as §1, §2, §3, §4, §5

human RORγ [2] = biological target: T1, human RORγ; assay: HG5LN GAL4-RORγ reporter cell line, agonist mode in presence of SR2211; conditions: in presence of SR2211 1 mM, NE = No effect; for EC50: read-out: RORγ (SR2211 1 mM) EC50
Text: as §1, §2, §3, §4, §5

human PXR = biological target: T3, human PXR (Homo sapiens, UniProt O75469); assay: HG5LN PXR reporter cell line, antagonist mode in presence of SR12813; conditions: read-out: PXR (SR12813 300 nM) IC50; in presence of SR12813 300 nM; NE = No effect
T3 construct: The GAL4-NR chimeric cell lines provide uniform cellular model differing just in receptor LBDs; expressed in transfected cells; host or cells: HG5LN PXR (HeLa-derived; described in Delfosse et al., 2015)
T3 sequence (O75469 146-433 limits assumed): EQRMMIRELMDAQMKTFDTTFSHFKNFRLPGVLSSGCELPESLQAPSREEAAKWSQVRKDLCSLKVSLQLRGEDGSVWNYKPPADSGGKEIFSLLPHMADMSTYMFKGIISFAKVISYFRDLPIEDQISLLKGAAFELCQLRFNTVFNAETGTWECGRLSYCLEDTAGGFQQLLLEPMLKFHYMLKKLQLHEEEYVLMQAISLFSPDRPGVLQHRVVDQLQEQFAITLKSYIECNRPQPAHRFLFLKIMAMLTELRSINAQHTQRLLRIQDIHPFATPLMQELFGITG
Method: as §2, §3, §4, §5

Row | Compound | IC50 (human RORγ [1]) [µM] | EC50 (human FXR) [µM] | EC50 (human RORγ [2]) [µM] | IC50 (human PXR) [µM] | FXR % max act (human FXR; maximal luciferase activity at 10^-5 M (10^-6 M for * and 3 10^-6 M for ** compounds), 100% = 1 µM GW4064, DMSO 6 ± 1) [%] | RORγ % min act (human RORγ [1]; constitutive activity = 100%, at 10^-5 M (10^-6 M *, 3 10^-6 M **)) [%] | RORγ (SR2211 1 mM) % max act (human RORγ [2]; 100% = constitutive activity, DMSO 56 ± 5, at 10^-5 M (10^-6 M *, 3 10^-6 M **)) [%]
1 | CCOC(=O)Nc1ccc2c(c1)N(C(=O)CN(CC)CC)c1ccccc1CC2 [CINPA1] | > 10 | > 10 | > 10 |  |  |  | 
2 | Clc1ccc(-c2nc3sccn3c2/C=N/OCc2ccc(Cl)c(Cl)c2)cc1 [CITCO] | > 10 | > 10 | > 10 |  |  |  | 
3 | Clc1ccccc1C(c1ccccc1)(c1ccccc1)n1ccnc1 [Clotrimazole, clotrimazole] | > 10 |  | > 10 |  |  |  | 
4 | COc1cccc(Cn2cc(C(=O)Nc3ccc(C)c(S(=O)(=O)N4CCOCC4)c3)c(-c3ccc(C)cc3)n2)c1 [DY268] | > 10 |  | > 10 | > 10 |  |  | 
5 | CC(C)(C)c1nc(-c2cccc(NS(=O)(=O)c3c(F)cccc3F)c2F)c(-c2ccnc(N)n2)s1 [Dabrafenib] | > 10 | > 10 | > 10 |  |  |  | 
6 | COC(=O)/C=C/c1cccc(N(Cc2ccc(-c3ccc(N(C)C)cc3)cc2)C(=O)C2CCCCC2)c1 [Feraxamine] | > 10 | 0.612 ± 0.188 | > 10 | > 10 | 33 |  | 
7 | Cc1cc(C)c(S(=O)(=O)N(Cc2ccc(-c3cccc(S(C)(=O)=O)c3)cc2)Cc2ccc(C(F)(F)F)o2)c(C)c1 [GSK2033] | > 10 | > 10 | > 10 |  |  |  | 
8 | O=C(O)Cc1cccc(OCCCN(Cc2cccc(C(F)(F)F)c2Cl)CC(c2ccccc2)c2ccccc2)c1 [GW3965] | > 10 |  | > 10 |  |  |  | 
9 | CC(C)c1onc(-c2c(Cl)cccc2Cl)c1COc1ccc(/C=C/c2cccc(C(=O)O)c2)c(Cl)c1 [GW4064] | > 10 |  | > 10 | > 10 |  |  | 
10 | Cc1oc2ccccc2c1CNC(=O)NCc1cccs1 [S07662] | > 10 | > 10 | > 10 | > 10 |  |  | 
11 | O=C(Nc1ccc(C(O)(C(F)(F)F)C(F)(F)F)cc1)c1ccccc1Cl [SR0987] |  | > 10 |  |  |  |  | 
12 | CC(=O)Nc1nc(C)c(S(=O)(=O)Nc2ccc(C(O)(C(F)(F)F)C(F)(F)F)cc2)s1 [SR1001] | 7.38 ± 2.11 | > 10 |  | > 10 |  | 54 | 
13 | O=C(Nc1ccc(C(O)(C(F)(F)F)C(F)(F)F)cc1)c1ccc(C(F)(F)F)cc1 [SR1078] |  | > 10 | 2.09 ± 0.131 | > 10 |  |  | 75
14 | CCOC(=O)c1ccc(CN(Cc2ccc(-c3cccc(S(C)(=O)=O)c3)cc2)S(=O)(=O)c2c(C)cc(C)cc2C)o1 [SR9238] | > 10 | > 10 | > 10 |  |  |  | 
15 | Cc1cc(C)c(S(=O)(=O)N(CCc2cccc(Br)c2)Cc2ccc(-c3cccc(S(C)(=O)=O)c3)cc2)c(C)c1 [SR9243] | > 10 | > 10 | > 10 |  |  |  | 
16 | CCOP(=O)(OCC)C(=Cc1cc(C(C)(C)C)c(O)c(C(C)(C)C)c1)P(=O)(OCC)OCC [SR12813] | > 10 | > 10 | > 10 |  |  |  | 
17 | Fc1ccc(-c2c3cccc(C(F)(F)F)c3nn2Cc2ccc(F)cc2Cl)cc1 [WAY252623] | > 10 | > 10 | > 10 |  |  |  | 
18 | SPA70 | > 10 | > 10 | > 10 |  |  |  | 

From paper PMC7394005, “Assessing the Selectivity of FXR, LXRs, CAR, and RORγ Pharmaceutical Ligands With Reporter Cell Lines” (Frontiers in Pharmacology, 2020)
